Source: article PMC9737983, “Quantification of Paeoniflorin by Fully Validated LC–MS/MS Method: Its Application to Pharmacokinetic Interaction between Paeoniflorin and Verapamil” (Molecules, 2022)
Read-outs that look alike come from different tables or passages of the source.

How the values were obtained:
Caco−2 cells = assay: Caco-2 Transwell transport of PF with and without verapamil; format: in vitro ADME; conditions: with/without verapamil, p < 0.05
Protocol: (§1) The Caco−2 cells were purchased from ATCC (Manassas, VA, USA) and cultured in a DMEM high-glucose medium with 15% FBS, 1% NEAA, and 100 U/mL penicillin and streptomycin. A total of 1.25 × 10^5 cells/cm^2 were seeded into […] (PET) in 96-well Falcon insert systems for 21–28 days to obtain a confluent cell monolayer. The test compounds were diluted with the transport buffer (HBSS with BSA) obtained from a 10 mM stock solution to a concentration of 10 µM and applied to the apical or basolateral sides of the cell monolayer. The permeation of the test compounds from A to B directions or B to A directions was determined in duplicate over a 120-min incubation period at 37 °C and 5% CO2 with a relative humidity of 95%. In addition, the efflux ratio of each compound was also determined. Test and reference compounds were quantified by LC-MS/MS analysis based on the peak area ratio of analyte/IS. The apparent permeability coefficient, Papp (cm/s), was calculated using the following equation:Papp = (dCr/dt) × Vr/(A × C0) where dCr/dt is the cumulative concentration of the compound in the receiver chamber as a function of time (S); Vr is the solution volume in the receiver chamber (0.1 mL on the apical side and 0.25 mL on the basolateral side); A is the surface area for the transport, i.e., 0.0804 cm^2 for the area of the monolayer and C0 is the initial concentration in the donor chamber. The efflux ratio was calculated using the following equation:Efflux Ratio = Papp BA/Papp AB where Papp BA is the apparent permeability coefficient obtained from the BL to AP sides (cm/s), and Papp AB is the apparent permeability coefficient obtained from the AP to BL sides (cm/s).

[1] = as above; format: in vitro ADME; conditions: human, Caco-2, absence of verapamil
Protocol: as §1

Caco-2 cell = conditions: Caco-2 monolayer cell; cited from earlier work
[2] = Stability of PF in SD rat plasma under storage conditions; format: in vitro ADME; conditions: for Freeze-thaw Stability, Measured Conc. / Bench-top Stability, Measured Conc. / Long-term Stability, Measured Conc.: SD rat plasma; for Freeze-thaw Stability, Measured Conc.: 4 cycles at −20 °C; for Freeze-thaw Stability, Measured Conc. / Bench-top Stability, Measured Conc. / Long-term Stability, Measured Conc. / Autosampler Stability, Measured Conc.: n = 6; for Bench-top Stability, Measured Conc.: room temperature for 16 h; for Long-term Stability, Measured Conc.: −20 °C for 90 days; for Autosampler Stability, Measured Conc.: extracted SD rat plasma, 10 °C for 72 h
Protocol: Stability in the plasma was tested by comparing the two-level QC samples (LQC and HQC) in sextuplicate injections to theoretical concentrations.
The stability of PF in rat plasma was investigated by analyzing QC samples at […]. Long-term stability was tested at −20 °C for at least 30 days; short-term stability was tested at room temperature for at least 6 h; the post-preparative stability test was conducted at 10 °C for 72 […] The determined concentrations should be within ±15% of the nominal concentrations.

[3] = Pharmacokinetic study in male SD rats (intravenous, oral, oral co-administration with verapamil); format: in vivo, Sprague–Dawley rats; conditions: for MRT inf: read-out: MRT0–∞; for Vd/F: read-out: Vz/F
Protocol: The animal experiment was approved by the Experimental Animal Ethics Committee of Shanghai University of Traditional Chinese Medicine (the Ethics Number: PZSHUTCM201016015). After 7 days of freely feeding the animals to acclimation, the rats were randomly divided into five groups, including the following: PF at an intravenous dose of 2 mg/kg and intragastric administrations of 5 mg/kg, 10 mg/kg, and 20 mg/kg; PF combined with verapamil at doses of 20 mg/kg and 50 mg/kg, respectively. All groups of PF or PF combined with verapamil were dissolved in saline to be completely dissolved or suspended. Blood samples were collected into EDTA−2K anti-coagulant tubes at projected times (0.083, 0.25, 0.5, 1, 2, 4, and 6 h post-dose) and then immediately centrifuged at 5500 rpm at 4 °C for 10 min to obtain the supernatant. The plasma samples were stored at −20 °C prior to analysis.
The plasma drug concentration of the PF was quantitated, according to the calibration curve, by the ratio of the analyte-to-IS peak areas obtained for each sample. Pharmacokinetic parameters, such as elimination half-life (T1/2), the area under the concentration–time curve from time zero to infinity (AUC0–∞), total body clearance (CL), and volume of distribution (Vz), were analyzed by the non-compartment model using WinNonlin software (Version 8.2). Subsequently, the main pharmacokinetic parameters were analyzed by an independent sample t-test. The oral absolute bioavailability was calculated as prescribed by the following equation: F (%) = (AUCp.o. × Dosei.v.)/(AUCi.v. × Dosep.o.) × 100%.

[4] = parameters: method as in PMID 31400507; conditions: cited from earlier work; for BCS class: classic BCS, everted gut sac assay
[5] = male, Sprague-Dawley, rat, plasma, iv, 2 mg/kg, intravenous 2 mg/kg, n = 5
[6] = male, Sprague-Dawley, rat, plasma, po, 5 mg/kg, oral mono-administration 5 mg/kg, n = 5
[7] = male, Sprague-Dawley, rat, plasma, po, 10 mg/kg, oral mono-administration 10 mg/kg, n = 5
[8] = male, Sprague-Dawley, rat, plasma, po, 20 mg/kg, oral 20 mg/kg co-administration with verapamil (50 mg/kg), n = 5
[9] = male, Sprague-Dawley, rat, plasma, po, 20 mg/kg, oral mono-administration 20 mg/kg, n = 5
[10] = male, Sprague-Dawley, rat, plasma, po, 20 mg/kg, range over oral doses 5, 10, 20 mg/kg
[11] = male, Sprague-Dawley, rat, plasma, intravenous 2 mg/kg, n = 5
[12] = oral 20 mg/kg with verapamil vs alone, p < 0.05

In the case of `C[C@@]12C[C@@]3(O)O[C@@H](O1)[C@]1(COC(=O)c4ccccc4)[C@H]3C[C@@]12O[C@@H]1O[C@H](CO)[C@@H](O)[C@H](O)[C@H]1O` [PF, paeoniflorin], the P-gp substrate status (Caco−2 cells) is reported as “may be a substrate for the P-gp efflux transporter”, the efflux ratio at 120 min, 10 µM [1] is reported as 1.52 and the Papp A→B at 120 min, 10 µM ([1]; 10 µM, 120 min) is reported as 0.17 ×10⁻⁶ cm/s. For the same molecule, the Papp B→A at 120 min, 10 µM ([1]; 10 µM, 120 min) was 0.26 ×10⁻⁶ cm/s, the efflux rate constant (Caco-2 cell) was “higher than 2” and the “stability in SD rat plasma” value ([2]; 16 h bench-top, 72 h autosampler, 4 freeze-thaw cycles at −20 °C, 90 days at −20 °C) was “stable”. The “Freeze-thaw Stability, Measured Conc.” value ([2]; nominal 3.0 ng/mL) was 3.14 ± 0.17 ng/mL, the “Freeze-thaw Stability, Measured Conc.” value ([2]; nominal 1500 ng/mL) was 1662 ± 44.5 ng/mL and the “Bench-top Stability, Measured Conc.” value ([2]; nominal 3.0 ng/mL) was 3.01 ± 0.21 ng/mL. The “Bench-top Stability, Measured Conc.” value ([2]; nominal 1500 ng/mL) was 1538 ± 52.0 ng/mL, the “Long-term Stability, Measured Conc.” value ([2]; nominal 3.0 ng/mL) was 2.86 ± 0.20 ng/mL and the “Long-term Stability, Measured Conc.” value ([2]; nominal 1500 ng/mL) was 1500 ± 37.4 ng/mL. The “Autosampler Stability, Measured Conc.” value ([2]; nominal 3.0 ng/mL) was 2.91 ± 0.16 ng/mL, the “Autosampler Stability, Measured Conc.” value ([2]; nominal 1500 ng/mL) was 1535 ± 54.7 ng/mL and the AUC(0-inf) [3, 5] was 2400 ± 201 ng·h/mL. It also gave an AUC(0-t) [3, 5] of 2400 ± 202 ng·h/mL, a half-life [3, 5] of 54 ± 24 min and an MRT inf [3, 5] of 12 min. For the same molecule, the bioavailability ([3]; male, Sprague-Dawley, rat, plasma, po, 5 mg/kg, oral mono-administration 5 mg/kg vs intravenous 2 mg/kg, read-out: F) was 1.3%, the AUC(0-inf) [3, 6] was 74.7 ± 49.1 ng·h/mL and the AUC(0-t) [3, 6] was 64.7 ± 44 ng·h/mL. The CL/F [3, 6] was 1640 mL/min/kg, the Cmax [3, 6] was 42.3 ± 17.5 ng/mL and the Tmax [3, 6] was 30 min. For the same molecule, the half-life [3, 6] was 48 ± 24 min, the MRT inf [3, 6] was 78 ± 30 min and the Vd/F [3, 6] was 85.7 ± 21.1 L/kg. The bioavailability ([3]; male, Sprague-Dawley, rat, plasma, po, 10 mg/kg, oral mono-administration 10 mg/kg vs intravenous 2 mg/kg, read-out: F) was 0.7%, the AUC(0-inf) [3, 7] was 84 ± 17 ng·h/mL and the AUC(0-t) [3, 7] was 82.3 ± 18.4 ng·h/mL. For the same molecule, the CL/F [3, 7] was 2050 mL/min/kg, the Cmax [3, 7] was 63.4 ± 11.4 ng/mL and the Tmax [3, 7] was 30 min. For the same molecule, the half-life [3, 7] was 30 ± 6 min, the MRT inf [3, 7] was 60 ± 12 min and the Vd/F [3, 7] was 89 ± 7.1 L/kg. For the same molecule, the AUC(0-inf) [3, 8] was 892 ± 487 ng·h/mL, the AUC(0-t) [3, 8] was 882 ± 491 ng·h/mL and the CL/F [3, 8] was 487 mL/min/kg. It also gave a Cmax [3, 8] of 464 ± 237 ng/mL, a Tmax [3, 8] of 42 ± 18 min and a half-life [3, 8] of 42 ± 6 min. It also gave an MRT inf [3, 8] of 90 ± 6 min, a Vd/F [3, 8] of 31.5 ± 20.3 L/kg and a bioavailability ([3]; male, Sprague-Dawley, rat, plasma, po, 20 mg/kg, oral 20 mg/kg co-administration with verapamil vs intravenous 2 mg/kg, read-out: F) of 3.7%. The bioavailability ([3]; male, Sprague-Dawley, rat, plasma, po, 20 mg/kg, oral mono-administration 20 mg/kg vs intravenous 2 mg/kg, read-out: F) was 0.6%, the AUC(0-inf) [3, 9] was 157 ± 65.3 ng·h/mL and the AUC(0-t) [3, 9] was 149 ± 64.8 ng·h/mL. The CL/F [3, 9] was 2420 mL/min/kg, the Cmax [3, 9] was 100 ± 42.5 ng/mL and the Tmax [3, 9] was 42 ± 18 min. The half-life [3, 9] was 30 ± 6 min, the MRT inf [3, 9] was 72 ± 6 min and the Vd/F [3, 9] was 112 ± 45.7 L/kg. It also gave a CL/F [3, 10] of 1640 to 2420 mL/min/kg, a Tmax [3, 10] of 30 to 42 min and a half-life [3, 10] of 30 to 48 min. It also gave a bioavailability ([3]; male, Sprague-Dawley, rat, plasma, po, 20 mg/kg, range over oral doses 5, 10, 20 mg/kg, read-out: absolute oral bioavailability) of 0.6 to 1.3%, a C0 [3, 11] of 11200 ng/mL and a clearance [3, 11] of 13.3 mL/min/kg. It also gave a Vd ([3]; male, Sprague-Dawley, rat, plasma, intravenous 2 mg/kg, n = 5, read-out: Vz) of 0.2 L/kg, a Cmax ([3]; oral 5 mg/kg) of 42.3 ± 17.5 ng/mL and a Cmax ([3]; oral 10 mg/kg) of 63.4 ± 11.4 ng/mL. For the same molecule, the Cmax ([3]; oral 20 mg/kg) was 100 ± 42.5 ng/mL, the “increase of Cmax, co-administration vs mono-administration” value ([3]; oral 20 mg/kg with verapamil vs alone, p < 0.01) was 4.6 times and the “increase of AUC0–t, co-administration vs mono-administration” value [3, 12] was 5.9 times. The “increase of AUC0–∞, co-administration vs mono-administration” value [3, 12] was 5.7 times, the “Tmax, T1/2 and MRT0–∞, co-administration vs mono-administration” value ([3]; oral 20 mg/kg with verapamil vs alone, statistical analysis) was “no significant difference” and the “solubility and permeability characteristics” value [4] was “high solubility and low permeability”.
In the case of salvianolic acid B, the BCS class [4] is given as “III/IV”.
In the case of `COc1cc2c3c(c1OC)-c1ccccc1C[C@H]3N(C)CC2` [nuciferine], the BCS class [4] is listed as “III/IV”.
For `O=c1c(O[C@@H]2O[C@H](CO)[C@H](O)[C@H](O)[C@H]2O)c(-c2ccc(O)c(O)c2)oc2cc(O)cc(O)c12` [hyperoside], the BCS class [4] is given as “III/IV”.
For `C[C@@H]1O[C@@H](OC[C@H]2O[C@@H](Oc3c(-c4ccc(O)c(O)c4)oc4cc(O)cc(O)c4c3=O)[C@H](O)[C@@H](O)[C@@H]2O)[C@H](O)[C@H](O)[C@H]1O` [rutin], the BCS class [4] is given as “III/IV”.
